Assay [1] concerns BAE cell (endothelial cells of bovine aorta). As to the kind of experiment: Chemotaxis of BAE cells (collagen-coated chamber, MTT method). The settings on record: 2DDR 10 μM + 2DLR 100 μM versus 2DDR 10 μM alone; DMEM + 1% FCS; incubation 4.5 hours. Type of assay: cell-based. As for the experimental part:
The experimental results of the effect of 2-deoxy-L-ribose on the chemotaxis of BAE cell (endothelial cells of bovine aorta) are shown in FIG. 1. The numbers of inoculated cell 400000, incubation 4.5 hours Chamber coated by type 1 collagen: MTT method From left side, 1: DMEM+1% FCS (fetal calf serum) 2: 1+bFGF (angiogenesis factor) 10 ng/mL, 3: 1+2DDR (2-deoxy-D-ribose) 1 μM 4: 1+2DDR 10 μM 5: 1+2DDR 100 μM 6: 1+2DDR 10 μM+2DLR100 μM The effect of 2DLR ([…]) is obvious from the comparison between the date 4 and 6.
Background: Tetrazolium assays rely on reduction of a dye to a coloured formazan, in cell work by metabolically active cells.

In assay [2] the test system is KB cells overpressing TP (KB/TP). As to the kind of experiment: Millipore chamber angiogenesis assay, chamber with KB cells implanted dorsal subcutaneously in mouse. The settings on record: for number of angiogenesis (longer than 3 mm, zig-zag pattern): 100 mg/kg/day into abdominal cavity every 12 hours for 4 days, male BALB/c mouse. The class given is in vivo. The procedure: KB cells overpressing TP (KB/TP) prepared by transfection of […] into KB cells and TP-negative KB cells (KB/CV) prepared by transfection of an empty vector are rinsed by phosphate buffered saline PBS for two times, each 1×10^5 numbers are contained into a Millipore chamber (10 mm diameter, 2 mm thickness, pore size of filter is 0.22 μm) and inserted into dorsal subcutaneous of a male BALB/c mouse of 6-7 weeks age. 2-deoxy-L-ribose (100 mg/kg/day) is administered into abdominal cavity every 12 hours for 4 days. After 4 days from the implanting, the Millipore chamber is removed, and numbers of angiogenesis (longer than 3 mm and showing zig-zag pattern) were counted using a microscope. Results by microscope observation are shown in FIG. 2 (picture A, B, C and D). The number of angiogenesis by KB/TP cell (B) is 4.33 and that of KB/CV cell (B) is 2.67. When 2-deoxy-L-ribose is administereded, that of KB/TP cell (D) becomes to 2.83 and that of […] becomes to 2.83.

In a further assay the test system is KB/TP cells. As to the kind of experiment: TP-dependent liver metastasis after injection of tumor cells into the spleen. Type of assay: in vivo, mouse. The note with it: for number of metastatic nodules in liver: KB/TP cell into spleen, 4 weeks, Balb/nude mouse. As for the experimental part: A Balb/nude mouse of 7-8 weeks age is anesthetized by Nembutal (pentobarbital) and abdomen is slightly incised so as to observe the spleen. 1×10^5 numbers of KB/CV cells or KB/TP cells used in Example 2 is injected into the spleen. After one minute, the spleen is excised and the incised position is sutured. 2-deoxy-L-ribose (100 mg/kg/day) is injected to subcutaneous by two times (morning and evening) every day or one time every other day. To the control group, same amount of physiological saline is injected. After 4 weeks from therapy starting, abdomen is incised, the liver is excised and the number of metastatic nodules are counted. […] The number of metastatic lesions of KB/TP cell is obviously larger than those of KB/CV cell.

As for `O=CC[C@@H](O)[C@@H](O)CO` [2-deoxy-L-ribose], the “effect on the chemotaxis of BAE cell” value in assay [1] is “obvious”. Further, the “suppression of the angiogenesis by TP” value in assay [2] (100 mg/kg/day into abdominal cavity for 4 days, overall conclusion) is recorded as “perfectly supressing the angiogenesis by TP”. The “number of angiogenesis (longer than 3 mm, zig-zag pattern)” value in assay [2] (KB/TP cell (D)) and in assay [2] (KB/TP cell (E) as printed) was 2.83 in each case. In addition, the “suppression of TP-dependent metastasis of tumor from spleen to liver” value in the assay with KB/TP cells (100 mg/kg/day subcutaneous, overall conclusion) is recorded as “perfectly suppressing the TP-dependent metastasis of tumor from spleen to liver”. In addition, the “number of metastatic nodules in liver” value in the assay on KB/TP cells (100 mg/kg/day subcutaneous one time every other day) is recorded as “smaller than the number of metastatic nodules of KB/CV cell”; in the assay on KB/TP cells (100 mg/kg/day subcutaneous two times (morning and evening) every day (LR)), “smaller than the number of metastatic nodules of KB/CV cell”.

These data come from US20040048807A1, “Angiogenesis inhibitors” (priority 2000, published 2004).
